PubChem BioAssay (NCI)
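Exposure lasted 48 hours, with cells grown in 96-well plates and compounds tested at five concentrations. TGI marks complete inhibition of growth.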

What was measured:
Assay in all cases: NCI-60 cell line screen, 48 h
EKVX NSCLC = test system: EKVX NSCLC
HL-60(TB) leukemia = test system: HL-60(TB) leukemia
HT29 colon = test system: HT29 colon
MCF7 breast = test system: MCF7 breast
NCI-H460 lung = test system: NCI-H460 lung
OVCAR-4 ovarian = test system: OVCAR-4 ovarian
SF-295 CNS = test system: SF-295 CNS
SF-539 CNS = test system: SF-539 CNS
SN12C renal = test system: SN12C renal
SW-620 colon = test system: SW-620 colon

SMILES	TGI (EKVX NSCLC)	TGI (HL-60(TB) leukemia)	TGI (HT29 colon)	TGI (MCF7 breast)	TGI (NCI-H460 lung)	TGI (OVCAR-4 ovarian)	TGI (SF-295 CNS)	TGI (SF-539 CNS)	TGI (SN12C renal)	TGI (SW-620 colon)
c1cc2c(cc1[C@@H]1OC[C@@H]3[C@H]1CO[C@H]3c1ccc3c(c1)OCO3)OCO2	83.6 µM	> 100 µM	> 100 µM	> 100 µM	> 100 µM	> 100 µM	> 100 µM	> 100 µM	> 100 µM	> 100 µM
CC(C)[C@@H]1NC(=O)[C@@H]2N=C(O[C@H]2C)[C@H](C(C)C)NC(=O)C2N=C1O[C@H]2C	> 100 µM	> 100 µM	> 100 µM	> 100 µM	> 100 µM	> 100 µM	> 100 µM	> 100 µM	> 100 µM	> 100 µM
CC(=O)O[C@H]1C(=O)[C@@]2(C)[C@H]([C@H](OC(=O)c3ccco3)[C@]3(O)C[C@H](OC(=O)[C@H](O)[C@@H](NC(=O)c4ccccc4)c4ccccc4)C(C)=C1C3(C)C)[C@]1(OC(C)=O)CO[C@@H]1C[C@@H]2O	> 25 µM	0.123 µM	> 25 µM	> 25 µM	> 13 µM	> 25 µM	> 19.7 µM	0.371 µM	> 25 µM	> 25 µM
CCOC(=O)c1cn(CC)c2ccc3c(c2c1=O)S(=O)(=O)C=C3	> 100 µM	> 100 µM	> 100 µM	> 100 µM	> 100 µM	> 100 µM	> 100 µM	> 100 µM	> 100 µM	> 100 µM
N#CC(NNC(=O)c1ccccc1O)c1c(O)ccc2ccccc12 (stereo unspecified)	51.7 µM	12.2 µM	> 87.7 µM	53.6 µM	36.8 µM	23.3 µM	50.5 µM	23.1 µM	37.9 µM	> 60.9 µM
CCOC(=O)C1C(c2ccc(OC)cc2)c2c([nH]n(-c3ccccc3)c2=O)CC1(C)O (stereo unspecified)	> 100 µM	11.1 µM	> 100 µM	> 100 µM	> 100 µM	> 100 µM	> 100 µM	> 100 µM	> 100 µM	> 100 µM
C=CCNC1=C2C[C@@H](C)C[C@@H](OC)[C@H](OC(=O)CCN(C)C)[C@H](C)/C=C(\C)[C@@H](OC(N)=O)[C@H](OC)/C=C\C=C(/C)C(=O)NC(=CC1=O)C2=O	22.9 µM	11.7 µM	12.8 µM	14.9 µM	16.1 µM	26.7 µM	12.3 µM	16.8 µM	17.9 µM	> 51.3 µM
Cc1ccc(-n2cc(-c3ccc(Cl)cc3)c3c(=N)n(N)cnc32)cc1	29.9 µM	31.7 µM	20.6 µM	23.2 µM	22.2 µM	22.5 µM	28.8 µM	27 µM	29.9 µM	25.1 µM
NC(Cc1ccccc1CP(=O)(O)O)C(=O)O (stereo unspecified)	> 100 µM	> 100 µM	> 100 µM	> 100 µM	> 100 µM	> 100 µM	> 100 µM	> 100 µM	> 100 µM	> 100 µM
S=c1[nH]nc(CCCCCCCCc2n[nH]c(=S)o2)o1	> 100 µM	> 100 µM	> 100 µM	> 100 µM	> 100 µM	> 100 µM	> 100 µM	> 100 µM	> 100 µM	> 100 µM
CC[C@]1(Cc2ccc(OC)c(OC)c2)C=[N+]([O-])O[C@H](OC2CCCC2(c2ccccc2)c2ccccc2)[C@@H]1OC(=O)C(C)(C)C (stereo partly specified)	22.3 µM	8.1 µM	4.49 µM	> 23.3 µM	6.92 µM	14.1 µM	14.8 µM	–	> 22.1 µM	> 100 µM
Cc1cc2c(cc1Cl)Sc1n[nH]c(=O)n1S2(=O)=O	> 100 µM	> 100 µM	> 100 µM	> 100 µM	> 100 µM	> 100 µM	> 100 µM	> 100 µM	> 100 µM	> 100 µM
Cc1ccccc1Nc1nc2ccccc2nc1NS(=O)(=O)c1ccccc1	> 100 µM	> 100 µM	> 100 µM	> 100 µM	> 100 µM	> 100 µM	> 100 µM	> 100 µM	> 100 µM	> 100 µM
Cc1cc2occ(S(=O)(=O)NC(=O)Nc3ccc(Cl)cc3)c(=O)c2c(=O)o1	> 100 µM	> 100 µM	> 100 µM	> 100 µM	> 100 µM	> 100 µM	> 100 µM	> 100 µM	> 100 µM	> 100 µM
CCCCCCCc1ccc(-c2nnc(N=Nc3ccc(OCCCCC)cc3)s2)s1	> 100 µM	> 100 µM	> 100 µM	> 100 µM	> 100 µM	> 100 µM	> 100 µM	> 100 µM	> 100 µM	> 100 µM
COC(=O)[C@@H]1COC(=O)N1	> 100 µM	> 100 µM	> 100 µM	> 100 µM	> 100 µM	> 100 µM	> 100 µM	> 100 µM	> 100 µM	> 100 µM
Cc1ccc2nc(C(=O)O)c(=O)[nH]c2c1	> 100 µM	> 100 µM	> 100 µM	> 100 µM	> 100 µM	> 100 µM	> 100 µM	> 100 µM	> 100 µM	> 100 µM
c1ccc(-c2c(-c3[nH]c4ccccc4c3-c3ccccc3)[nH]c3ccccc23)cc1	14.1 µM	11.1 µM	> 100 µM	11.9 µM	8.57 µM	8.78 µM	14.9 µM	21.3 µM	3.8 µM	13.1 µM
CC(=O)N1c2cc(N=NN(C)C)ccc2NC(=O)CC1C (stereo unspecified)	> 100 µM	> 100 µM	> 100 µM	> 100 µM	> 100 µM	> 100 µM	> 100 µM	–	> 100 µM	> 100 µM
O=C1C=C/C(=C/[C@H]2SSC=C[C@]23C=CC(=O)C3)C1	63.6 µM	15.1 µM	32.2 µM	> 100 µM	> 94.3 µM	> 74.2 µM	> 100 µM	61.3 µM	52.3 µM	> 51.5 µM

SMILES	TGI (EKVX NSCLC)	TGI (HL-60(TB) leukemia)	TGI (HT29 colon)	TGI (MCF7 breast)	TGI (NCI-H460 lung)	TGI (OVCAR-4 ovarian)	TGI (SF-295 CNS)	TGI (SF-539 CNS)	TGI (SN12C renal)	TGI (SW-620 colon)
O=C(NCc1ccccc1Cl)c1c(O)c2ccccc2[nH]c1=O	> 100 µM	> 100 µM	> 100 µM	> 100 µM	> 100 µM	23.2 µM	> 100 µM	> 100 µM	> 100 µM	64.3 µM
O=C1c2ccccc2C(=O)c2sc(Nc3cc(Cl)ccc3Cl)nc21	26.7 µM	4.89 µM	36.1 µM	3.7 µM	21.5 µM	18.2 µM	17.4 µM	13.4 µM	3.17 µM	> 22.2 µM
C[n+]1c(-c2ccc(/C=N/NC(=O)C(=O)N/N=C/c3ccc(-c4cn5ccccc5[n+]4C)cc3)cc2)cn2ccccc21	> 100 µM	> 100 µM	> 100 µM	> 100 µM	> 100 µM	> 100 µM	–	> 100 µM	> 100 µM	> 100 µM
S=c1[nH]n2c(COc3cc(Cl)c(OCc4nnc5sc(=S)[nH]n45)cc3Cl)nnc2s1	> 100 µM	> 100 µM	> 100 µM	40.8 µM	> 100 µM	> 100 µM	> 100 µM	> 100 µM	> 100 µM	> 100 µM
C=CCOC(=O)N1c2ccc(O)cc2[C@@]23O[C@@]24[C@@H]1C#C/C=C\C#C[C@]3(O)C(=O)C[C@@H]4C	> 100 µM	> 100 µM	> 100 µM	> 100 µM	> 100 µM	50.1 µM	> 100 µM	> 100 µM	> 100 µM	> 100 µM
COc1cc2c(cc1OC)C(=O)/C(=C/c1ccc(N(C)C)cc1)CC2	> 10 µM	> 10 µM	> 10 µM	> 10 µM	> 10 µM	> 10 µM	> 10 µM	> 10 µM	> 10 µM	> 10 µM
CCOC(=O)c1cc2c3c(cc(OC)c2[nH]1)N(C(=O)OCC)CC3	> 100 µM	> 100 µM	> 100 µM	> 100 µM	> 100 µM	> 100 µM	> 100 µM	> 100 µM	> 100 µM	> 100 µM
Cc1cc(=O)n2nc(CSc3nnc(Sc4cc(O)ccc4O)s3)sc2n1	> 100 µM	54.1 µM	> 100 µM	30.9 µM	> 100 µM	> 100 µM	> 100 µM	> 100 µM	> 100 µM	44.5 µM
COc1cccc(CCCNC(=O)Cc2ccccc2CO)c1	> 100 µM	> 100 µM	> 100 µM	> 100 µM	> 100 µM	> 100 µM	> 100 µM	> 100 µM	> 100 µM	> 100 µM
CC(NNC(=O)c1ccncc1)c1ccc(Cl)cc1Cl (stereo unspecified)	> 100 µM	> 100 µM	> 100 µM	> 100 µM	> 100 µM	> 100 µM	> 100 µM	> 100 µM	> 100 µM	> 100 µM
Cc1ccc(NCCN(C)C)c2c(=O)c3cc(O)ccc3sc12	27.6 µM	6.07 µM	8.2 µM	1.59 µM	5.72 µM	14.1 µM	18.4 µM	10.4 µM	14 µM	5.76 µM
CCc1cc2c(c3c1CCCC3=O)CC1(C2)Cc2cc(CC)c3c(c2C1)C(=O)CCC3	> 100 µM	> 100 µM	> 100 µM	> 100 µM	> 100 µM	> 100 µM	> 100 µM	> 100 µM	> 100 µM	> 100 µM
C/C(Nc1ccc(Cl)cc1)=C1/CCOC1=O	> 100 µM	> 100 µM	> 100 µM	> 100 µM	> 100 µM	> 100 µM	> 100 µM	> 100 µM	> 100 µM	> 100 µM
CN(C)C(=O)Oc1ccc(C(=S)Nc2ccccc2)cc1	> 100 µM	84.9 µM	> 100 µM	> 100 µM	> 100 µM	> 100 µM	> 100 µM	> 100 µM	–	> 100 µM
c1ccc(Nc2nnc(CCCCCCCCc3nnc(Nc4ccccc4)o3)o2)cc1	> 100 µM	> 100 µM	> 100 µM	> 100 µM	> 100 µM	> 100 µM	> 100 µM	> 100 µM	> 100 µM	> 100 µM
O=c1c2cc(I)ccc2nc(-c2cccs2)n1O	> 100 µM	> 100 µM	> 100 µM	> 100 µM	> 100 µM	96.9 µM	> 100 µM	> 100 µM	> 100 µM	> 100 µM
COC(=O)c1ccccc1C1CN=NC12Cc1c(C)ccc(C)c1C2=O (stereo unspecified)	> 100 µM	> 100 µM	> 100 µM	> 100 µM	> 100 µM	> 100 µM	> 100 µM	> 100 µM	> 100 µM	> 100 µM
CCC1CN2CCc3c([nH]c4ccccc34)[C@@](C(=O)OC)(c3cc4c(cc3OC)N(C)C3C(O)(C(=O)OC)C(C(=O)OC)C5(CC)C=CCN6CCC43C65)C[C@@H](C2)[C@@H]1C(C)(C)C (stereo partly specified)	> 10 µM	1.23 µM	> 2.64 µM	> 10 µM	2.34 µM	> 10 µM	0.555 µM	2.31 µM	9.93 µM	> 10 µM
COc1ccc(/C(CC2OC(=O)c3ccccc32)=N\NC(N)=O)cc1 (stereo unspecified)	> 100 µM	> 100 µM	> 100 µM	> 100 µM	> 100 µM	> 100 µM	> 100 µM	> 100 µM	> 100 µM	> 100 µM
Cc1cc(C)nc(NS(=O)(=O)c2ccc(Nc3c4ccccc4nc4ccc(C(=O)Nc5ccc(S(=O)(=O)N=C(N)N)cc5)cc34)cc2)n1	> 100 µM	> 100 µM	> 100 µM	43.9 µM	> 100 µM	> 100 µM	> 100 µM	> 100 µM	> 100 µM	> 100 µM
